The text below walks through data of patent US8440841B2, “5-pyrrolidinylsulfonyl isatin derivatives” (Universitätsklinikum Münster, priority 2005, dated 2013).

Series [1] deals with T1, recombinant human caspase 3 (Homo sapiens, UniProt P42574).
T1 construct: Recombinant full-length human caspase-3 was purified as described previously [21b]; made in house
T1 sequence (P42574 29-175 limits assumed): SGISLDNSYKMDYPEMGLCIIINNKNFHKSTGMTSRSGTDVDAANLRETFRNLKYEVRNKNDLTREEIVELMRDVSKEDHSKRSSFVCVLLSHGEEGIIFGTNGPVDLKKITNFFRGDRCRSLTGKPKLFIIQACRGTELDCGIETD
T1 sequence (P42574 176-277 limits assumed): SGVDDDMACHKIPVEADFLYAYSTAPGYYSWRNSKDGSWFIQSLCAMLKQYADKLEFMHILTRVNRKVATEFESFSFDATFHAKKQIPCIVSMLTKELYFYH
In words: Caspase inhibition assay, standard fluorometric assay with Ac-DEVD-AMC. The note with it: Ki(app) = IC50/(1 + [S]/KM), [S] = 10 μM Ac-DEVD-AMC, 37° C., pH 7.5. Type of series: biochemical. Here is the method: The inhibition of recombinant human caspase 3 by twentythree isatin sulfonamides (twenty
Recombinant full-length human caspase-3 was purified as described previously [21b]. […] Enzyme assays were performed in a 200 μl volume at 37° C. in reaction buffer containing 0.1% CHAPS, 50 mM KCl, 5 mM β-mercaptoethanol, 25 mM HEPES (pH 7.5) and nonradioactive isatins in DMSO each in single doses (end concentrations 500 μM, 50 μM, 5 μM, 500 nM, 50 nM, 5 nM, 500 pM, 50 pM or 5 pM). […] After 10 min incubation time Ac-DEVD-AMC (end concentration 10 μM) was added and reacted for further 10 min. […] The IC50-values were determined by non-linear regression analysis using the XMGRACE program (Linux software) and converted into the corresponding Ki-values by the equation Ki=IC50/(1+[S]/KM) assuming competitive inhibition by the isatin derivatives, where [S] is the concentration and KM is the Michaelis constant of substrate Ac-DEVD-AMC.

The target of the next series is T2, active caspase-3 (Homo sapiens, UniProt P42574).
T2 construct: endogenous in cells; host or cells: HUVEC
T2 sequence (P42574 29-175 limits assumed): T1 sequence (P42574 29-175 limits assumed)
T2 sequence (P42574 176-277 limits assumed): T1 sequence (P42574 176-277 limits assumed)
In words: Cellular caspase assay: growth factor withdrawal-induced apoptosis in HUVEC, Western blot. Type of series: cell-based. The note with it: 8 hours, at 10 μM (FIGS. 1 and 2). Here is the method:
In the context of cellular apoptosis assays concentration- and time-dependent kinetics of mentioned CbRs and CbR-transporter conjugates are performed to evaluate the pharmacological inhibition of apoptosis in viable apoptotic cells (e.g. growth factor withdrawal-induced, drug-induced, or ionizing radiation-induced apoptosis in endothelial cells).
HUVEC (Human umbilical vein endothelial cells) were cultivated on gelatine (2%)-coated dishes in RPMI-1640 containing 15% bovine calf serum, 1% Pen/Strep/Amph, 1% Heparin and 0.05 mg/ml bovine pituitary extract (BPE) at 37° C. in 5% CO2. Apoptosis was induced by growth factor withdrawal as previously described. For caspase inhibition experiments, cells were pre-incubated for 30 min with the compounds in the indicated concentrations. The medium was then removed and replaced with RPMI-1640 without serum or BPE, and the cells were incubated in the presence or absence of the various inhibitor concentrations for 8 hours. All cells were then harvested in lysis buffer, incubated for 10 min on ice, and cell debris was removed by centrifugation at 14000 rpm at 4° C. for 10 min. Protein concentration was determined by the Pierce protein assay, and 30 μg cell lysate were loaded on 15% SDS-Page gels and transferred to Immobilon PVDF membranes. Western blots were performed with antibodies to active caspase-3 (Cell Signaling) and developed using ECL (Amersham).
A quantitative (pharmacological) inhibition of before mentioned target caspases with the non-radioactive PET- or SPECT-compatible CbRs of presented invention needs macroscopic amounts of the inhibitor, i.e. concentrations of caspase inhibitor that are definitely more than necessarily needed for molecular imaging purposes.

A short description of series [2]: Small-animal PET biodistribution after i.v. injection. Type of series: in vivo, WT Mouse (Nu/Nu). The following applies: mouse, 180 min p.i. Here is the method:
PET was performed using a high-resolution dedicated small-animal PET system (32-module quadHIDAC; Oxford Positron Systems) which uses multiwire chamber detectors with submillimeter-resolution potency. For each data acquisition, up to two mice were placed on a heating pad to maintain a normal body temperature. The animals were anesthetised by inhalation of isoflurane (1.5%) and intravenously injected with approximately 7 MBq of each radiotracer in 100 μL isotonic as well as isohydric solution.
A small-animal PET scan was performed with the quadHIDAC device to trace the in vivo biodistribution behavior of the PET-compatible CbR (S)-1-(4-(2[<18>F]fluoroethoxy)benzyl)-5-[1-(2-methoxymethylpyrrolidinyl)-sulfonyl]isatin [<18>F]VI. Immediately after i.v. injection of [<18>F]VI (A=7MBq, pH=8, A5=48 GBq/[mu]mol, V=100 [mu]1 in sodium bicarbonate buffered saline solution) data acquisition was started. List-mode data were acquired for 180 min and subsequently reconstructed into an image volume of 90×90×120 mm<3>, voxel size 0.4×0.4×0.4 mm<3>, using an iterative reconstruction algorithm (OPL-EM). […] Mentioned hot spot remains even 6 h p.i. (data not shown).

Consider `C[Si](C)(C)c1ccc(CN2C(=O)C(=O)c3cc(S(=O)(=O)N4CCC[C@H]4COc4ccccc4)ccc32)cc1` [1b, (S)-5-[1-(2-phenoxymethylpyrrolidinyl)sulfonyl]-1-(4-trimethylsilylbenzyl)-isatin], for which the melting point – broadly, the temperature of the solid-liquid transition – was 128 to 130 °C (dec.). In addition, in series [1], the Ki came out at 0.7 nM.

As to `O=C1C(=O)N(Cc2ccc(Br)cc2)c2ccc(S(=O)(=O)N3CCC[C@H]3COc3ccccc3)cc21` [1c, (S)-(+)-1-(4-bromobenzyl)-5-[1-(2-phenoxymethylpyrrolidinyl)sulfonyl]isatin], in series [1], the Ki turned out to be 3 nM.

In the case of `COC[C@@H]1CCCN1S(=O)(=O)c1ccc2c(c1)C(=O)C(=O)N2C` [II, (S)-5-[1-(2-methoxymethylpyrrolidinyl)sulfonyl]-1-methyl-isatin], the melting point is 143 to 144 °C. In series [1], the Ki came to 2 nM. For the same compound, the “inhibition of caspase progression (Western blot, active caspase-3)” value (“inhibition of caspase progression” for short) on active caspase-3 is reported as “recognizable”.

With `O=C1C(=O)N(Cc2ccc(O)cc2)c2ccc(S(=O)(=O)N3CCC[C@H]3COc3ccccc3)cc21` [IIIa, (S)-1-(p-hydroxybenzyl)-5-[1-(2-phenoxymethylpyrrolidinyl)sulfonyl]isatin], the Ki in series [1] was found to be 3 nM.

As to `O=C1C(=O)N(Cc2ccc(OCc3ccccc3)cc2)c2ccc(S(=O)(=O)N3CCC[C@H]3COc3ccccc3)cc21` [IIIaa, (S)-(+)-1-(4-benzyloxybenzyl)-5-[1-(2-phenoxymethylpyrrolidinyl)-sulfonyl]isatin], the melting point lay within 69 to 70 °C. In addition, in series [1], the Ki is 6.9 nM.

As for `CC(C)(C)[Si](C)(C)Oc1ccc(CN2C(=O)C(=O)c3cc(S(=O)(=O)N4CCC[C@H]4COc4ccccc4)ccc32)cc1` [IIIab, (S)-1-(p-tert-butyldimethylsilyloxybenzyl)-5-[1-(2-phenoxymethylpyrrolidinyl)sulfonyl]-isatin], the Ki in series [1] stood at 20 nM.

For `COC[C@@H]1CCCN1S(=O)(=O)c1ccc2c(c1)C(=O)C(=O)N2` [IIa, (S)-5-(1-[2-(methoxymethyl)pyrrolidinyl]-sulfonyl)isatin, reference compound], in series [1], the Ki is 77 nM.

For the compound `COC[C@@H]1CCCN1S(=O)(=O)c1ccc2c(c1)C(=O)C(=O)N2Cc1ccc(OC)cc1` [IV, (S)-1-(4-methoxybenzyl)-5-[1-(2-methoxymethylpyrrolidinyl)sulfonyl]isatin], the Ki in series [1] turned out to be 9 nM. Further, the “inhibition of caspase progression” value against active caspase-3 is “recognizable”.

For the compound `COC[C@@H]1CCCN1S(=O)(=O)c1ccc2c(c1)C(=O)C(=O)N2Cc1ccc(O)cc1` [IVa, (S)-1-(p-hydroxybenzyl)-5-[1-(2-methoxymethylpyrrolidinyl)sulfonyl]isatin], in series [1], the Ki was found to be 45 nM.

In turn, `COC[C@@H]1CCCN1S(=O)(=O)c1ccc2c(c1)C(=O)C(=O)N2Cc1ccc(OCc2ccccc2)cc1` [IVaa, (S)-(+)-1-(4-benzyloxybenzyl)-5-[1-(2-methoxymethylpyrrolidinyl)-sulfonyl]isatin] displayed a melting point of 73 to 74 °C. Besides, in series [1], the Ki is 5 nM.

Turning to `COC[C@@H]1CCCN1S(=O)(=O)c1ccc2c(c1)C(=O)C(=O)N2Cc1ccc(O[Si](C)(C)C(C)(C)C)cc1` [IVab, (S)-1-(p-tert-butyldimethylsilyloxybenzyl)-5-[1-(2-methoxymethylpyrrolidinyl)sulfonyl]-isatin], the Ki in series [1] is 4 nM.

Regarding `O=C1C(=O)N(Cc2ccc(OCCF)cc2)c2ccc(S(=O)(=O)N3CCC[C@H]3COc3ccccc3)cc21` [V, (S)-1-(4-(2-fluoroethoxy)benzyl)-5-[1-(2-phenoxymethylpyrrolidinyl)sulfonyl]isatin], the Ki in series [1] came out at 0.4 nM.

Turning to `COC[C@@H]1CCCN1S(=O)(=O)c1ccc2c(c1)C(=O)C(=O)N2Cc1ccc(OCCF)cc1` [VI, (S)-1-(4-(2-fluoroethoxy)benzyl)-5-[1-(2-methoxymethylpyrrolidinyl)sulfonyl]isatin], the Ki in series [1] turned out to be 36 nM. At active caspase-3, the “inhibition of caspase progression” value was “recognizable”.

As to `COC[C@@H]1CCCN1S(=O)(=O)c1ccc2c(c1)C(=O)C(=O)N2Cc1ccc(OCCOS(=O)(=O)c2ccc(C)cc2)cc1` [VIa, (S)-1-(4-(2-(p-methylphenylsulfonyloxy)ethoxy)benzyl)-5-[1-(2-methoxymethylpyrrolidinyl)sulfonyl]isatin], the melting point lay in the range of 61 to 62 °C. In addition, the Ki in series [1] was found to be 2 nM.

For `COC[C@@H]1CCCN1S(=O)(=O)c1ccc2c(c1)C(=O)C(=O)N2Cc1ccc(OCCBr)cc1` [VIaa, (S)-1-(4-(2-bromoethoxy)benzyl)-5-[1-(2-methoxymethylpyrrolidinyl)-sulfonyl]isatin], the melting point was in the range of 61 to 62 °C. The Ki in series [1] turned out to be 13 nM.

Consider `Cc1ccc(S(=O)(=O)OCCOc2ccc(CN3C(=O)C(=O)c4cc(S(=O)(=O)N5CCC[C@H]5COc5ccccc5)ccc43)cc2)cc1` [Va, (S)-1-(4-(2-(p-methylphenylsulfonyloxy)ethoxy)benzyl)-5-[1-(2-phenoxymethylpyrrolidinyl)sulfonyl]isatin], for which, in series [1], the Ki was 17 nM.

`O=C1C(=O)N(Cc2ccc(OCCBr)cc2)c2ccc(S(=O)(=O)N3CCC[C@H]3COc3ccccc3)cc21` [Vaa, (S)-1-(4-(2-bromoethoxy)benzyl)-5-[1-(2-phenoxymethylpyrrolidinyl)sulfonyl]isatin] came in with a melting point of 162 to 163 °C. Besides, the Ki in series [1] came to 25 nM.

As to `COC[C@@H]1CCCN1S(=O)(=O)c1ccc2c(c1)C(=O)C(=O)N2Cc1ccc(OCC[18F])cc1` [[^18F]VI, (S)-1-(4-(2-[^18F]Fluoroethoxy)benzyl)-5-[1-(2-methoxymethylpyrrolidinyl)-sulfonyl]isatin], the “clearance of radioactivity from peripheral organs (PET)” value in series [2] (7 MBq, all peripheral organs (FIG. 3)) is given as “cleared”. For the same compound, the “remaining radioactivity (PET)” value in series [2] (hot spot (putatively gall bladder) remains even 6 h p.i.) was “only remains in the bowels and in a hot spot nearby the liver”.

Compound `O=C1C(=O)N(Cc2ccc(I)cc2)c2ccc(S(=O)(=O)N3CCC[C@H]3COc3ccccc3)cc21` [compound 1, (S)-1-(4-iodobenzyl)-5-[1-(2-phenoxymethylpyrrolidinyl)sulfonyl]isatin] registered a melting point of 88 to 90 °C.

For `COC[C@@H]1CCCN1S(=O)(=O)c1ccc2c(c1)C(=O)C(=O)N2Cc1ccc(I)cc1` [compound 2, (S)-1-(4-iodobenzyl)-5-[1-(2-methoxymethylpyrrolidinyl)sulfonyl]isatin], the melting point fell in the range of 129 to 130 °C. In series [1], the Ki was 11 nM. On active caspase-3, the “inhibition of caspase progression” value is “recognizable”.
